The results in this text go back to patent publication US7169786B2, “Isoxazoline derivatives as anti-depressants” (priority 2001, dated 2007).

One test has as its target T1, h5-HT transporter (Homo sapiens, UniProt P31645).
T1 construct: Human platelet membranes (Oceanix Biosciences Corporation, Hanover, Md., USA) were thawed; tissue Oceanix Biosciences Corporation, Hanover, Md., USA; host or cells: human platelet membranes
Description: Radioligand binding experiment for 5-HT transporter ([3H]paroxetine, human platelet membranes). The note with it: human platelet membranes, [3H]paroxetine 0.5 nM; for IC50: read-out: 5HTT pIC50 (converted). An outline of the steps: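 Competition binding of [^3H]paroxetine to human platelet membranes in Tris-HCl 50 mM, 120 mM NaCl, 5 mM KCl; filter-bound radioactivity counted.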

Another test deals with T2, hα2B receptor (Homo sapiens, UniProt P18089).
T2 construct: expressed in transfected cells
T2 sequence (P18089 1-450): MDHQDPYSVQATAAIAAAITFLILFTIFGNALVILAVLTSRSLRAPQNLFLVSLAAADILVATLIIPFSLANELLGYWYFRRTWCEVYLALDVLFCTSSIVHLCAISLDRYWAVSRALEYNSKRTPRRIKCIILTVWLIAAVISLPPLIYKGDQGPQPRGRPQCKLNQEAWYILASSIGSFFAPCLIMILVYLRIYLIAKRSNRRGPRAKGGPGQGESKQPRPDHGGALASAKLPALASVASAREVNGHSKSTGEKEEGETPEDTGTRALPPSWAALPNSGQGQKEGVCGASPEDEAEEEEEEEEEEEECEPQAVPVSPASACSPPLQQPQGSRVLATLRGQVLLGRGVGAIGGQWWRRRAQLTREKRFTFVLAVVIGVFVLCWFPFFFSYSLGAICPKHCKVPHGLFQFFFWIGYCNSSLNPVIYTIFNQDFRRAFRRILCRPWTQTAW
Description: Radioligand binding experiment for hα2B receptor ([3H]-raulwolscine). As to conditions: membranes of CHO cells expressing human α2B receptor, [3H]raulwolscine 1 nM; for IC50: read-out: hα2B pIC50 (converted). The essentials:
(§1)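 Competition binding with [3H]-rauwolscine on membranes from CHO cells stably expressing human α2A, α2B or α2C receptors (sodium butyrate-induced), in 25 mM glycylglycine pH 8.0; filtration and scintillation counting.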

In the next test the target is T3, hα2A receptor (Homo sapiens, UniProt P08913).
T3 construct: expressed in transfected cells
T3 sequence (P08913 1-465): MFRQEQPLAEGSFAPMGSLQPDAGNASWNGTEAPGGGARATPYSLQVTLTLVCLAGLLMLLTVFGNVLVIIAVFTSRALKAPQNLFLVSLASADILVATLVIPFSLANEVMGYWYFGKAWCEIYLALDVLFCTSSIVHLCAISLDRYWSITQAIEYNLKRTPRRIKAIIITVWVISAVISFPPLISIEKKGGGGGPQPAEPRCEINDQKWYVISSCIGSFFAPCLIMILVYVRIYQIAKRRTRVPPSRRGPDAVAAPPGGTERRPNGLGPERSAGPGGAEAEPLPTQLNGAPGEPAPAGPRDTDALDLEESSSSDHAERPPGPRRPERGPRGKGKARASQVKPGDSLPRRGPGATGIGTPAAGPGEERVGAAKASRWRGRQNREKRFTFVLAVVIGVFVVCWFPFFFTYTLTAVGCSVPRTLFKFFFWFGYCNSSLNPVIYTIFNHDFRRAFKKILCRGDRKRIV
Description: Radioligand binding experiment for hα2A receptor ([3H]-raulwolscine). The note with it: membranes of CHO cells expressing human α2A receptor, [3H]raulwolscine 1 nM; for IC50: read-out: hα2A pIC50 (converted). The method, then:
The interaction of the compounds of Formula (I) with hα2-receptors and h5-HT-transporters was assessed in in vitro radioligand binding experiments. In general, a low concentration of a radioligand with a high binding affinity for a particular receptor or transporter is incubated with a sample of a tissue preparation enriched in a particular receptor or transporter or with a preparation of cells expressing cloned human receptors in a buffered medium. During the incubation, the radioligand binds to the receptor or transporter. When equilibrium of binding is reached, the receptor bound radioactivity is separated from the non-bound radioactivity, and the receptor- or transporter-bound activity is counted. The interaction of the test compounds with the receptor is assessed in competition binding experiments. Various concentrations of the test compound are added to the incubation mixture containing the receptor- or transporter preparation and the radioligand. The test compound in proportion to its binding affinity and its concentration inhibits binding of the radioligand. The radioligand used for hα2A, hα2B and hα2C receptor binding was [^3H]-raulwolscine and for the h5-HT transporter was [^3H]paroxetine.
CHO cells, stabile transfected with human adrenergic-α2A-, -α2B or α2C receptor cDNA, were cultured in Dulbecco's Modified Eagle's Medium (DMEM)/Nutrient mixture Ham's F12 (ratio 1:1)(Gibco, Gent-Belgium) supplemented with 10% heat inactivated fetal calf serum (Life Technologies, Merelbeke-Belgium) and antibiotics (100 IU/ml penicillin G, 100 μg/ml streptomycin sulphate, 110 μg/ml pyruvic acid and 100 μg/ml L-glutamine). One day before collection, cells were induced with 5 mM sodiumbutyrate. Upon 80–90% of confluence, cells were scraped in phosphate buffered saline without Ca^2+ and Mg^2+ and collected by centrifugation at 1500×g for 10 min. The cells were homogenised in Tris-HCl 50 mM using an Ultraturrax homogenizer and centrifuged for 10 min at 23,500×g. The pellet was washed once by resuspension and rehomogenization and the final pellet was resuspended in Tris-HCl, divided in 1 ml aliquots and stored at −70° C.
Membranes were thawed and re-homogenized in incubation buffer (glycylglycine 25 mM, pH 8.0). […] Filters were rinsed extensively with ice-cold rinsing buffer (Tris-HCl 50 mM pH 7.4). Filter-bound radioactivity was determined by scintillation counting in a Topcount (Packard, Meriden, Conn.) and results were expressed as counts per minute (cpm). Non-specific binding was determined in the presence of 1 μM oxymetazoline for hα2A- and hα2B receptors and 1 μM spiroxatrine for hα2C receptors.
Data from assays in the presence of compound were calculated as a percentage of total binding measured in the absence of test compound. Inhibition curves, plotting percent of total binding versus the log value of the concentration of the test compound, were automatically generated, and sigmoidal inhibition curves were fitted using non-linear regression. The pIC50 values of test compounds were derived from individual curves.

In the next test the target is T4, hα2C receptor (Homo sapiens, UniProt P18825).
T4 construct: expressed in transfected cells
T4 sequence (P18825 1-462): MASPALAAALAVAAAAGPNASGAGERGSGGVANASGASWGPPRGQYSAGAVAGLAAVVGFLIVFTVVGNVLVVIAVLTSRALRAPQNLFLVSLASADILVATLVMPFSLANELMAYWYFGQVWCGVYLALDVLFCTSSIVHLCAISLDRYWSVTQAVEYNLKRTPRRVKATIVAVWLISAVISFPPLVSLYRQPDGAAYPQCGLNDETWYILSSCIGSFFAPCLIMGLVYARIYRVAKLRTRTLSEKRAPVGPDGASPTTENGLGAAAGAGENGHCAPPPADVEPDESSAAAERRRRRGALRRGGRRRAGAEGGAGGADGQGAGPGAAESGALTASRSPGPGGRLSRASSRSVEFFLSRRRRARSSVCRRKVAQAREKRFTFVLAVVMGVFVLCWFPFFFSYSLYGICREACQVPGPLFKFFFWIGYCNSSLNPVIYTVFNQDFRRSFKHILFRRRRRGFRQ
Description: Radioligand binding experiment for hα2C receptor ([3H]-raulwolscine). The note with it: membranes of CHO cells expressing human α2C receptor, [3H]raulwolscine 1 nM; for IC50: read-out: hα2C pIC50 (converted). An outline of the steps: as §1

T1 sequence (P31645 whole entry): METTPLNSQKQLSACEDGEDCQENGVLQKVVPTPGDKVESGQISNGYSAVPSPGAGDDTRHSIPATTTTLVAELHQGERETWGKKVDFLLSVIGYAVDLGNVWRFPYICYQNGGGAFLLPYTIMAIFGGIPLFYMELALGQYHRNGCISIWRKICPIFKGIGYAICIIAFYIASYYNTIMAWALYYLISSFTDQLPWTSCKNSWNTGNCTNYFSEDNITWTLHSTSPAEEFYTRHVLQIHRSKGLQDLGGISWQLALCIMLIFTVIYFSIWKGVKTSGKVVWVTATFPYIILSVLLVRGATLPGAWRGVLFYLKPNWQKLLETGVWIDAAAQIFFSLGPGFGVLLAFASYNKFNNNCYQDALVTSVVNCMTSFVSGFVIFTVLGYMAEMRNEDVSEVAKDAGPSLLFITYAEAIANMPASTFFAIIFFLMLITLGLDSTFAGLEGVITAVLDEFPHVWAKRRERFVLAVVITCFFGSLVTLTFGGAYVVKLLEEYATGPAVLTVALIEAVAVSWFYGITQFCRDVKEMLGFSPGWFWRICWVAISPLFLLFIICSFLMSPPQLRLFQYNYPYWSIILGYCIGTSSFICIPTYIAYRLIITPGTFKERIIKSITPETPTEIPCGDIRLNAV

As for `COc1cc2c(cc1OC)C1=NOC(CN3CCN(CC(C)Nc4ccccc4)CC3)C1CO2` (centres unmarked) [Compound 26], the IC50 at h5-HT transporter was 676 nM; on hα2B receptor, 102 nM; at hα2A receptor, 525 nM; on hα2C receptor, 245 nM.
Turning to `COc1cc2c(cc1OC)C1=NOC(CN3CCN(CC(C)Oc4cccc(F)c4)CC3)C1CO2` (centres unmarked) [Compound 27], the IC50 at h5-HT transporter was 18.2 nM; at hα2B receptor, 6.03 nM; on hα2A receptor, 4.07 nM; at hα2C receptor, 1.55 nM.
Turning to `COc1cc2c(cc1OC)C1=NOC(CN3CCN(Cc4ccccc4)CC3)C1CO2` (centres unmarked) [Compound 31], the IC50 on h5-HT transporter was 501 nM; on hα2B receptor, 631 nM; on hα2A receptor, 794 nM; at hα2C receptor, 1000 nM.
As to `COc1cc2c(cc1OC)C1=NOC(CN3CCN(CCCc4ccccc4)CC3)C1CO2` (centres unmarked) [Compound 32], the IC50 on h5-HT transporter is 17 nM; on hα2B receptor it was 14.5 nM; on hα2A receptor, 12.6 nM; on hα2C receptor, 11.5 nM.
`COc1cc2c(cc1OC)C1=NOC(CN3CCN(CC=Cc4ccc(F)cc4)CC3)C1CO2` (centres unmarked) [Compound 43]: the IC50 at h5-HT transporter was 15.8 nM; on hα2B receptor it was 64.6 nM; on hα2A receptor, 102 nM; at hα2C receptor it was 138 nM.
For `COc1cc2c(cc1OC)C1=NOC(CN3CCN(Cc4ccc5ccccc5n4)CC3)C1CO2` (centres unmarked) [Compound 45] the same measures were 69.2 nM, 70.8 nM, 57.5 nM and 43.7 nM.
Taken in the same sequence, the figures for `COc1cc2c(cc1OC)C1=NOC(CN3CCN(CCc4ccc5c(c4)OCO5)CC3)C1CO2` (centres unmarked) [Compound 47] were 50.1 nM, 447 nM, 661 nM and 851 nM.
`COc1cc2c(cc1OC)C1=NOC(CN3CCN(CCOc4ccc(F)cc4)CC3)C1CO2` (centres unmarked) [Compound 48]: the IC50 is 126 nM on h5-HT transporter, 5.75 nM on hα2B receptor, 13.2 nM at hα2A receptor and 4.37 nM at hα2C receptor.
In the case of `COc1cc2c(cc1OC)C1=NOC(CN3CCN(Cc4cc5ccccc5o4)CC3)C1CO2` (centres unmarked) [Compound 54], the IC50 on h5-HT transporter is 41.7 nM; on hα2B receptor, 38 nM; at hα2A receptor, 19.1 nM; at hα2C receptor, 36.3 nM.
On to `COc1cc2c(cc1OC)C1=NOC(CN3CCN(CC4=Cc5ccccc5OC4)CC3)C1CO2` (centres unmarked) [Compound 65], for which the IC50 at h5-HT transporter is 5.13 nM; on hα2B receptor, 18.2 nM; on hα2A receptor, 13.2 nM; at hα2C receptor, 5.13 nM.
Take `COc1cc2c(cc1OC)C1=NOC(CN3CCN(Cc4ccc5cc(C)ccc5c4)CC3)C1CO2` (centres unmarked) [Compound 72]: the IC50 is 6.92 nM on h5-HT transporter, 178 nM at hα2B receptor, 46.8 nM on hα2A receptor and 66.1 nM on hα2C receptor.
Taken in the same sequence, the figures for `COc1cc2c(cc1OC)C1=NOC(CN3CCN(Cc4ccc5cc(F)ccc5c4)CC3)C1CO2` (centres unmarked) [Compound 76] were 1.58 nM, 89.1 nM, 72.4 nM and 25.1 nM.
Consider `COc1cc2c(cc1OC)C1=NOC(CN3CCN(CC=Cc4cccc(C)c4)CC3)C1CO2` (centres unmarked) [Compound 110], for which the IC50 on h5-HT transporter was 30.2 nM; at hα2B receptor, 112 nM; on hα2A receptor, 69.2 nM; on hα2C receptor it was 34.7 nM.
Taken in the same sequence, the figures for `COc1cc2c(cc1OC)C1=NOC(CN3CCN(CC=Cc4ccc5c(c4)CCO5)CC3)C1CO2` (centres unmarked) [Compound 125] were 13.5 nM, 141 nM, 56.2 nM and 34.7 nM.
For `COc1cc2c(cc1OC)C1=NOC(CN3CCN(CC(Br)=Cc4ccccc4)CC3)C1CO2` (centres unmarked) [Compound 143] the same measures were 24 nM, 25.1 nM, 77.6 nM and 23.4 nM.
On to `CCC(=Cc1ccccc1)CN1CCN(CC2ON=C3c4cc(OC)c(OC)cc4OCC32)CC1` (centres unmarked) [Compound 154], for which the IC50 at h5-HT transporter was 89.1 nM; on hα2B receptor it was 40.7 nM; at hα2A receptor, 53.7 nM; at hα2C receptor, 87.1 nM.
Take `COc1cc2c(cc1OC)C1=NOC(CN3CCN(CC=Cc4ccc5ccccc5c4)CC3)C1CO2` (centres unmarked) [Compound 181]: the IC50 is 23.4 nM on h5-HT transporter, 776 nM on hα2B receptor, 282 nM at hα2A receptor and 324 nM at hα2C receptor.
With `CC(=O)Oc1ccc2c(c1)OCC1C2=NOC1CN1CCN(CC=Cc2ccccc2)CC1` (centres unmarked) [Compound 233], on h5-HT transporter, the “5HTT pIC50” value is 7.36. For the same compound, the “hα2B pIC50” value on hα2B receptor amounted to 8.20. Besides, at hα2A receptor, the “hα2A pIC50” value is recorded as 8.33. Also, the “hα2C pIC50” value on hα2C receptor is listed as 7.94.
With `CSc1cc2c(cc1F)C1=NOC(CN3CCN(CC(C)=Cc4ccccc4)CC3)C1CO2` (centres unmarked) [Compound 244], the IC50 was 126 nM on h5-HT transporter, 7.41 nM on hα2B receptor, 3.8 nM on hα2A receptor and 1.35 nM at hα2C receptor.
Regarding `COc1cc2c(cc1Cl)C1=NOC(CN3CCN(CC(C)=Cc4ccccc4)CC3)C1CO2` (centres unmarked) [Compound 246], the “5HTT pIC50” value at h5-HT transporter came out at 7.50. Moreover, at hα2B receptor, the “hα2B pIC50” value was found to be 7.90. For the same compound, the “hα2A pIC50” value at hα2A receptor is 7.55. The “hα2C pIC50” value at hα2C receptor is given as 7.86.
